Test results published in US20180110757A1, “METHODS OF TREATING PRURITIS AND PAIN” (The Regents of the University of California, priority 2016, published 2018).
Blank lines part the entries; values can stand above or below the compound they belong to.

Legend:
[1] = biological target: T1, S1PR3 (Mus musculus, UniProt Q9Z0U9); test: Ratiometric calcium imaging in cultured DRG neurons; format: cell-based, mice; details: for calcium responses in cultured DRG neurons: S1P 100 nM, CYM 100 μM
T1 construct: attenuates S1P-evoked calcium responses in wild-type DRG sensory neurons; endogenous in cells; host or cells: cultured mouse dorsal root ganglion (DRG) neurons, wild-type
Method: FIG. 1A-1G. A. Graphical model illustrating the role of S1PR3-evoked itch in somatosensory neurons of the dorsal root ganglion (DRG). […] C. […] D. Venn diagram displaying overlap of S1P responsive neurons from ratiometric calcium imaging with known pruritogens and algogens in cultured DRG neurons. Pruritogens: HIS=histamine, CQ=chloroquine. Algogens: CAP=capsaicin, AITC=allyl-isothiocyanate. Data were collected from n>4,000 neurons. E. Scratching behavioral data for mice injected with 200 nM S1P or 0.1% methanol-PBS vehicle intradermally into the rostral back. WT=wild-type, A1 −/−=Trpa1-deficient knockout mice. Scratching behaviors were recorded 30 minutes post injection. […] G. S1pr3 transcript levels were quantified using qRT-PCR from skin of mice treated with vitamin D or ethanol control for 7 days to induce an atopic dermatitis-like condition. Data were normalized to Gapdh housekeeping gene. For all data, one way ANOVA was performed with a Tukey-Kramer post hoc statistical test. Tukey-Kramer values are reported and only p<0.05 were considered significant, ***=p<0.001. n.s.=not significant.

[2] = tested on: mice; test: Scratching behavior after intradermal injection into the rostral back; format: in vivo
[3] = tested on: KCNQ2/3 potassium channels (M channels); test: Excitability of mechanical nociceptor DRG neurons in vitro; format: cell-based; details: via S1PR3, through closure of KCNQ2/3 potassium channels
Source text: In situ RNA hybridization studies and protein localization studies indicate that S1pr3 is expressed in thermal nociceptors and mechanical nociceptors, as well as nociceptive free nerve endings in skin.

[4] = tested on: wild-type mice; test: Mechanical pain sensitivity (von Frey, tactile stimuli) in healthy wild-type mice; format: in vivo
Source text: Likewise, in S1pr3^−/− mice, radiant heat withdrawal latencies were normal.
Pharmacological manipulation of S1PR3 or reduction of S1P levels lessens mechanical pain sensation in wild-type mice without affecting innocuous touch.
Blockade of S1PR1 with the selective antagonist W146 has no effect on mechanosensitivity. Tonic levels of S1P in the skin are responsible for S1PR3-mediated mechanical pain sensation.

[5] = tested on: wild-type mice; test: Complete Freund's Adjuvant (CFA) model of chronic inflammation; format: in vivo
Source text: S1PR3 knockout mice treated with CFA fail to develop thermal hypersensitivity and display normal mechanical sensitivity due to their baseline defect in mechanical pain sensation. They also display lessened paw swelling, possibly due to decreased neurogenic inflammation. […] Loss of S1P production with acute SKI II injection into the CFA-treated paw also reverses CFA thermal hypersensitivity.

[6] = S1PR3-deficient (S1PR3 −/−) mice
[7] = wildtype mice (WT), compared to physiological saline control
[8] = wild-type mice, intradermal administration
[9] = wild-type mice, delivered to the hindpaw after induction of CFA pain

T1 sequence (Q9Z0U9 whole entry): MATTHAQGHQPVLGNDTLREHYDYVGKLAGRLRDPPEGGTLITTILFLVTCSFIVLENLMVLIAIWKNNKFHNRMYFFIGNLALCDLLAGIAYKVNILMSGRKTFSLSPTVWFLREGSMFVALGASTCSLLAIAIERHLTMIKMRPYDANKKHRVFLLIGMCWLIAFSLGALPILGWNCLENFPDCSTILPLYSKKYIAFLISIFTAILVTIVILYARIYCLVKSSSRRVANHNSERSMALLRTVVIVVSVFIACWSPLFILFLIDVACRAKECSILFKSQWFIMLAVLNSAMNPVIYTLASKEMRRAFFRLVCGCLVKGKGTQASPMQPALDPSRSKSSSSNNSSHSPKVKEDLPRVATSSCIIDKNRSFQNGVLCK

Structure (SMILES): CCCCCCCCCCCCC/C=C/[C@@H](O)[C@@H](N)COP(=O)(O)O [S1P, Sphingosine-1-phosphate]
calcium responses in cultured DRG neurons [1, 6]: lack calcium responses
calcium responses in cultured DRG neurons [1, 7]: robust responses
scratching behavior vs. vehicle ([2]; S1PR3-deficient mice (S1PR3 −/−), 200 nM intradermally, 30 minutes post injection): no difference
scratching behavior ([2]; mice (FIG. 1E), S1PR3-dependent opening of TRPA1): leads to scratching behavior in mice
excitability of mechanical nociceptor DRG neurons [3]: increases the excitability

Structure (SMILES): Oc1ccc(Nc2nc(-c3ccc(Cl)cc3)cs2)cc1 [SKI II, 2-(p-hydroxyanilino)-4-(p-chlorophenyl)thiazole]
mechanical pain sensitivity after block of local production of S1P ([4]; injection of 50 μM): mechanical pain sensitivity was dependent on local S1P in the skin
CFA thermal hypersensitivity ([5]; acute injection into the CFA-treated paw): reverses

Structure (SMILES): CCCCCCc1cccc(NC(=O)[C@H](N)CCP(=O)(O)O)c1 [W146]
mechanosensitivity [4, 8]: no effect

Continued, in another order:

calcium responses in cultured DRG neurons [1, 6]: lack calcium responses
calcium responses in cultured DRG neurons [1, 7]: robust responses
Structure (SMILES): O=C(c1cc(C2CC2)on1)N(C1CCCCC1)C1CCCCC1 [CYM 5541]

effect on S1P-evoked calcium responses ([1]; wild-type DRG sensory neurons): attenuates
effect on the effects of the allosteric agonist CYM (calcium imaging) ([1]; wild-type DRG sensory neurons): does not block
Structure (SMILES): CC(C)(C)C(=O)C(=Nc1ccc(Cl)cc1)NNc1ccc(Cl)cc1 [TY 52156, N-(4-Chlorophenyl)-3,3-dimethyl-2-oxobutanimidic 2-(4-chlorophenyl) hydrazide]
mechanosensitivity [4, 8]: promotes mechanical hyposensitivity
responsiveness to noxious tactile stimuli [4, 8]: decreases responsiveness
mechanical thresholds [5, 9]: to pre-CFA, baseline levels
thermal thresholds [5, 9]: to pre-CFA, baseline levels
